Laboratory results published in patent US20260176289A1, “SMALL MOLECULE INHIBITORS OF KRAS PROTEINS” (Merck Sharp & Dohme LLC, priority 2022, published 2026).
Where two headings read alike, the source gives them in different places.

Assays:
KRAS-WT = KRAS-WT (Homo sapiens, UniProt P01116); assay: SOS-catalyzed nucleotide exchange assay (Procedure A, TR-FRET), KRAS-WT; type: biochemical
Outline: (§1)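 Signal ratio (520/495 nm, excitation 340 nm) reports Bodipy-GDP retention on biotinylated RAS after SOS-catalyzed exchange with 3 mM GTP. SOS was 40 nM, except 160 nM for G12V. Room-temperature exchange lasted 60 min (90 min for G12V), following a 60 min compound preincubation.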

KRAS-G12D = KRAS-G12D (Homo sapiens, UniProt P01116, G12D); assay: SOS-catalyzed nucleotide exchange assay (Procedure A, TR-FRET), KRAS-G12D; type: biochemical
Outline: as §1

KRAS-G12V = KRAS-G12V (Homo sapiens, UniProt P01116, G12V); assay: SOS-catalyzed nucleotide exchange assay (Procedure A, TR-FRET), KRAS-G12V; type: biochemical
Outline: as §1

AsPC-1 cells = assay: Cellular phospho-ERK assay, AsPC-1 cells (homozygous KRAS-G12D); type: cell-based; details: Homo sapiens, read-out: AsPC1 pERK IC50
Outline: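 Cells seeded at 10,000-15,000 per well were incubated overnight, then exposed to compound for 2 hours at 37 °C in a 10-point, 1:3 series topping at 30 μM final. Lysates were assayed by Alpha SureFire Ultra multiplex for p-ERK and total ERK; IC50 came from a 4-parameter logistic fit of their ratio.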

[1] = nucleotide exchange, read-out: KRAS WT GNE IC50
[2] = nucleotide exchange, read-out: KRAS G12D GNE IC50
[3] = nucleotide exchange, read-out: KRAS G12V GNE IC50
[4] = ASPC1, 2 h, 2 hours compound incubation
[5] = KRAS G12D GNE IC50, nucleotide exchange
[6] = KRAS G12V GNE IC50, nucleotide exchange
[7] = ASPC1, 2 hours compound incubation

KRAS-G12D, sequence (P01116 with tags, fused parts or gaps isoform P01116-2 G12D): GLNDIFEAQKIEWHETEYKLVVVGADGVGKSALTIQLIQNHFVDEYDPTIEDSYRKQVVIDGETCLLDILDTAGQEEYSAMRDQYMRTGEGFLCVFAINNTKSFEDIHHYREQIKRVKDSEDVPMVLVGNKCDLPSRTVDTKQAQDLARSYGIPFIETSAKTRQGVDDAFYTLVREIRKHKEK
KRAS-WT, sequence (P01116 with tags, fused parts or gaps isoform P01116-2): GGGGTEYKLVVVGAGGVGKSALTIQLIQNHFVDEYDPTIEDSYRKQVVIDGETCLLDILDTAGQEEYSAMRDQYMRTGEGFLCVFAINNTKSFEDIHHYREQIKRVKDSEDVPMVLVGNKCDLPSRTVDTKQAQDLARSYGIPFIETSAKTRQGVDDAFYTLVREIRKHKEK
KRAS-G12V, sequence (P01116 with tags, fused parts or gaps isoform P01116-2 G12V): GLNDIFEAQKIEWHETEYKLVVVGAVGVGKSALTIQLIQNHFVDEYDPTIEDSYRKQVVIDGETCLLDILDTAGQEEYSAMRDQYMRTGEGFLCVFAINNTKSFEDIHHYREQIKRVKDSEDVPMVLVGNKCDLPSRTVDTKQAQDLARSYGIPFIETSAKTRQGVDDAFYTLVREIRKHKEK

Compound | IC50 (KRAS-WT; [1]) | IC50 (KRAS-G12D; [2]) | IC50 (KRAS-G12V; [3]) | IC50 (AsPC-1 cells; [4]) | IC50 (AsPC-1 cells; ASPC1, 2 h, KRAS-G12D, 2 hours) | IC50 (KRAS-G12D; [5]) | IC50 (KRAS-G12V; [6]) | IC50 (AsPC-1 cells; ASPC1, KRAS-G12D, 2 hours) | IC50 (AsPC-1 cells; [7]) | IC50 (KRAS-WT; KRAS WT GNE IC50, nucleotide exchange)
CC1(C)C2CN(C[C@@]3(COc4nc(N5CCOC[C@@](C)(O)C5)c5c(n4)sc4c(-c6c(C7(F)CC7)c(Cl)cc7[nH]ncc67)nccc45)CC3(F)F)CC21 (stereo partly drawn) [Ex-234, (6S)-4-(8-(6-chloro-5-(1-fluorocyclopropyl)-1H-indazol-4-yl)-2-(((1R)-1-((6,6-dimethyl-3-azabicyclo[3.1.0]hexan-3-yl)methyl)-2,2-difluorocyclopropyl)methoxy)pyrido[4′,3′:4,5]thieno[2,3-d]pyrimidin-4-yl)-6-methyl-1,4-oxazepan-6-ol] | 0.389 µM | 0.0274 µM | 0.107 µM | 1.52 µM | – | – | – | – | – | –
COC1CC2(C1)CN(C[C@@]1(COc3nc(N4CCOC[C@@](C)(O)C4)c4c(n3)sc3c(-c5c(C6(F)CC6)c(Cl)cc6[nH]ncc56)nccc34)CC1(F)F)C2 [Ex-263, (6S)-4-(8-(6-chloro-5-(1-fluorocyclopropyl)-1H-indazol-4-yl)-2-(((R)-2,2-difluoro-1-((6-methoxy-2-azaspiro[3.3]heptan-2-yl)methyl)cyclopropyl)metho-xy)pyrido[4′,3′:4,5]thieno[2,3-d]pyrimidin-4-yl)-6-methyl-1,4-oxazepan-6-ol] | 0.0114 µM | 0.00302 µM | 0.0125 µM | 0.111 µM | – | – | – | – | – | –
Cc1cc2[nH]ncc2c(-c2nccc3c2sc2nc(OC[C@@]45CCCN4C[C@H](F)C5)nc(N4CCC[C@]5(CCO5)C4)c23)c1C(F)(F)F [Ex-200] | 0.474 µM | 0.141 µM | 0.0929 µM | 0.613 µM | – | – | – | – | – | –
C[C@@H]1CN(C[C@@]2(COc3nc(N4CCOC[C@@](C)(O)C4)c4c(n3)sc3c(-c5c(C6(F)CC6)c(Cl)cc6[nH]ncc56)nccc34)CC2(F)F)C[C@H](C)O1 [Ex-246, (6S)-4-(8-(6-chloro-5-(1-fluorocyclopropyl)-1H-indazol-4-yl)-2-(((R)-1-(((2R,6S)-2,6-dimethylmorpholino)methyl)-2,2-difluorocyclopropyl)methoxy)pyrido[4′,3′:4,5]thieno[2,3-d]pyrimidin-4-yl)-6-methyl-1,4-oxazepan-6-ol] | 0.374 µM | 0.0968 µM | 0.275 µM | 1.17 µM | – | – | – | – | – | –
C[C@@]1(O)COCCN(c2nc(OC[C@@]34CCCN3C[C@H](F)C4)nc3sc4c(-c5c6ccccc6cc6[nH]ncc56)nccc4c23)C1 [Ex-170, (6S)-4-(8-(1H-benzo[f]indazol-4-yl)-2-(((2R,7aS)-2-fluorotetrahydro-1H-pyrrolizin-7a(5H)-yl)methoxy)pyrido[4′,3′:4,5]thieno[2,3-d]pyrimidin-4-yl)-6-methyl-1,4-oxazepan-6-ol] | 0.0896 µM | 0.0329 µM | 0.0334 µM | 0.219 µM | – | – | – | – | – | –
C[C@@]1(O)COCCN(c2nc(OC[C@]3(CN4CC5CC5C4)CC3(F)F)nc3sc4c(-c5c(C6(F)CC6)c(Cl)cc6[nH]ncc56)nccc4c23)C1 (stereo partly drawn) [Ex-237, (6S)-4-(2-(((1R)-1-((3-azabicyclo[3.1.0]hexan-3-yl)methyl)-2,2-difluorocyclopropyl)methoxy)-8-(6-chloro-5-(1-fluorocyclopropyl)-1H-indazol-4-yl)pyrido[4′,3′:4,5]thieno[2,3-d]pyrimidin-4-yl)-6-methyl-1,4-oxazepan-6-ol] | 0.158 µM | 0.0249 µM | 0.0329 µM | 0.293 µM | – | – | – | – | – | –
Cc1cc2[nH]ncc2c(-c2nccc3c2sc2nc(OC[C@@]45CCCN4C[C@H](F)C5)nc(N4CCOC[C@@](C)(O)C4)c23)c1C(C)(F)F [Ex-41, (6S)-4-(8-(5-(1,1-difluoroethyl)-6-methyl-1H-indazol-4-yl)-2-(((2R,7aS)-2-fluorotetrahydro-1H-pyrrolizin-7a(5H)-yl)methoxy)pyrido[4′,3′:4,5]thi-eno[2,3-d]pyrimidin-4-yl)-6-methyl-1,4-oxazepan-6-ol] | 0.26 µM | 0.121 µM | 0.166 µM | – | 0.635 µM | – | – | – | – | –
C[C@@]1(O)COCCN(c2nc(OC[C@@]34CCCN3C[C@H](F)C4)nc3sc4c(-c5cccc(Cl)c5[Si](C)(C)C)nccc4c23)C1 [Ex-123, (S)-4-(8-(3-chloro-2-(trimethylsilyl)phenyl)-2-(((2R,7aS)-2-fluorotetrahydro-1H-pyrrolizin-7a(5H)-yl)methoxy)pyri-do[4′,3′:4,5]thieno[2,3-d]pyrimidin-4-yl)-6-methyl-1,4-oxazepan-6-ol] | 0.434 µM | – | – | – | – | 0.173 µM | 0.157 µM | 2.06 µM | – | –
C#CC(F)(F)c1c(C)cc2[nH]ncc2c1-c1nccc2c1sc1nc(OC[C@@]34CCCN3C[C@H](F)C4)nc(N3CCOC[C@@](C)(O)C3)c12 [Ex-153, (6S)-4-(8-(5-(1,1-difluoroprop-2-yn-1-yl)-6-methyl-1H-indazol-4-yl)-2-(((2R,7aS)-2-fluorotetrahydro-1H-pyrrolizin-7a(5H)-yl)methoxy)pyrido[4′,3′:4,5]thieno[2,3-d]pyrimidin-4-yl)-6-methyl-1,4-oxazepan-6-ol] | 0.322 µM | 0.123 µM | 0.215 µM | – | – | – | – | – | 1.64 µM | –
C[C@@]1(O)COCCN(c2nc(OC[C@@]34CCCN3C[C@H](F)C4)nc3sc4c(-c5c6c(cc7[nH]ncc57)CCC6=C(F)F)nccc4c23)C1 [Ex-177, (6S)-4-(8-(5-(difluoro-methylene)-1,5,6,7-tetrahydrocyclopenta [f]indazo1-4-yl)-2-(((2R,7aS)-2-fluoro-tetrahydro-1H-pyr-rolizin-7a(5H)-yl)-methoxy)pyrido[4′,3′: 4,5]thieno[2,3-d]pyr-imidin-4-yl)-6-methyl-1,4-oxazepam-6-ol] | – | – | – | – | – | 0.0231 µM | 0.0617 µM | – | 0.248 µM | 0.0774 µM
CO[C@@H]1C[C@@H](COc2nc(N3CCOC[C@@](C)(O)C3)c3c(n2)sc2c(-c4c(C5CC5)c(C(F)(F)F)cc5[nH]ncc45)nccc23)N(C)C1 [Ex-85, (6S)-4-(8-(5-cyclopropyl-6-(trifluoromethyl)-1H-indazol-4-yl)-2-(((2S,4R)-4-methoxy-1-methylpyrrolidin-2-yl)methoxy)pyrido[4′,3′:4,5]thi-eno[2,3-d]pyrimidin-4-yl)-6-methyl-1,4-oxazepan-6-ol] | 0.0811 µM | 0.0388 µM | 0.0443 µM | – | 0.764 µM | – | – | – | – | –
Cc1cc2[nH]ncc2c(-c2nccc3c2sc2nc(OC[C@@]45CCCN4C[C@H](F)C5)nc(N4CCOC[C@@](C)(O)C4)c23)c1SC(F)(F)F [Ex-45, (6S)-4-(2-(((2R,7aS)-2-fluorotetrahydro-1H-pyrrolizin-7a(5H)-yl)methoxy)-8-(6-methyl-5-((trifluoromethyl)thio)-1H-indazol-4-yl)pyrido[4′,3′:4,5]thieno [2,3-d]pyrimidin-4-yl)-6-methyl-1,4-oxazepan-6-ol] | 0.374 µM | 0.167 µM | 0.153 µM | – | 1.11 µM | – | – | – | – | –
C[C@H]1CN(C[C@@]2(COc3nc(N4CCOC[C@@](C)(O)C4)c4c(n3)sc3c(-c5c(C6(F)CC6)c(Cl)cc6[nH]ncc56)nccc34)CC2(F)F)CCO1 [Ex-244, (6S)-4-(8-(6-chloro-5-(1-fluorocyclopropyl)-1H-indazol-4-yl)-2-(((R)-2,2-difluoro-1-(((S)-2-methylmorpholino)methyl)cy-clopropyl)methoxy)pyrido[4′, 3′:4,5]thieno[2,3-d]pyrimidin-4-yl)-6-methyl-1,4-oxazepan-6-ol] | 0.699 µM | 0.14 µM | 0.207 µM | 0.711 µM | – | – | – | – | – | –
CO[C@]12CC[C@H]1CN(C[C@@]1(COc3nc(N4CCOC[C@@](C)(O)C4)c4c(n3)sc3c(-c5c(C6(F)CC6)c(Cl)cc6[nH]ncc56)nccc34)CC1(F)F)C2 [Ex-260, (6S)-4-(8-(6-chloro-5-(1-fluorocyclopropyl)-1H-indazol-4-yl)-2-(((R)-2,2-difluoro-1-(((1R,5S)-1-methoxy-3-azabicyclo[3.2.0]heptan-3-yl)methyl)cyclopropyl)metho-xy)pyrido[4′,3′:4,5]thieno[2,3-d]pyrimidin-4-yl)-6-methyl-1,4-oxazepan-6-ol] | 0.486 µM | 0.0416 µM | 0.185 µM | 1.21 µM | – | – | – | – | – | –
C[C@@]1(O)COCCN(c2nc(OC[C@]3(CN4CCC5(CC4)CC5)CC3(F)F)nc3sc4c(-c5c(C6(F)CC6)c(Cl)cc6[nH]ncc56)nccc4c23)C1 [Ex-233, (6S)-4-(2-(((R)-1-((6-azaspiro[2.5]octan-6-yl)methyl)-2,2-difluorocyclopropyl)methoxy)-8-(6-chloro-5-(1-fluorocyclopropyl)-1H-indazol-4-yl)pyrido[4′,3′:4,5]thieno[2,3-d]pyrimidin-4-yl)-6-methyl-1,4-oxazepan-6-ol] | 0.153 µM | 0.0101 µM | 0.0259 µM | 0.498 µM | – | – | – | – | – | –
